biological target: T1, cellular PARG (Homo sapiens, UniProt Q86W56); assay: Nuclear PAR accumulation assay (immunofluorescence high-content imaging); type: cell-based; conditions: HeLa cells, 1 hour compound treatment then MMS 50 μg/mL for an additional hour
T1 construct: endogenous in cells; host or cells: HeLa
Outline: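 HeLa cells pretreated 1 h at 37 °C with compound, then 1 h with 50 μg/mL MMS (final), methanol-fixed and immunostained for PAR with DAPI nuclear counterstain. Nuclear PAR intensity and percent PAR-positive cells quantified by high-content imaging (≥1,000 cells/well). IC50 by four-parameter logistic fit, normalized to 0.1% DMSO and reference-compound controls.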

T1 sequence (Q86W56 whole entry): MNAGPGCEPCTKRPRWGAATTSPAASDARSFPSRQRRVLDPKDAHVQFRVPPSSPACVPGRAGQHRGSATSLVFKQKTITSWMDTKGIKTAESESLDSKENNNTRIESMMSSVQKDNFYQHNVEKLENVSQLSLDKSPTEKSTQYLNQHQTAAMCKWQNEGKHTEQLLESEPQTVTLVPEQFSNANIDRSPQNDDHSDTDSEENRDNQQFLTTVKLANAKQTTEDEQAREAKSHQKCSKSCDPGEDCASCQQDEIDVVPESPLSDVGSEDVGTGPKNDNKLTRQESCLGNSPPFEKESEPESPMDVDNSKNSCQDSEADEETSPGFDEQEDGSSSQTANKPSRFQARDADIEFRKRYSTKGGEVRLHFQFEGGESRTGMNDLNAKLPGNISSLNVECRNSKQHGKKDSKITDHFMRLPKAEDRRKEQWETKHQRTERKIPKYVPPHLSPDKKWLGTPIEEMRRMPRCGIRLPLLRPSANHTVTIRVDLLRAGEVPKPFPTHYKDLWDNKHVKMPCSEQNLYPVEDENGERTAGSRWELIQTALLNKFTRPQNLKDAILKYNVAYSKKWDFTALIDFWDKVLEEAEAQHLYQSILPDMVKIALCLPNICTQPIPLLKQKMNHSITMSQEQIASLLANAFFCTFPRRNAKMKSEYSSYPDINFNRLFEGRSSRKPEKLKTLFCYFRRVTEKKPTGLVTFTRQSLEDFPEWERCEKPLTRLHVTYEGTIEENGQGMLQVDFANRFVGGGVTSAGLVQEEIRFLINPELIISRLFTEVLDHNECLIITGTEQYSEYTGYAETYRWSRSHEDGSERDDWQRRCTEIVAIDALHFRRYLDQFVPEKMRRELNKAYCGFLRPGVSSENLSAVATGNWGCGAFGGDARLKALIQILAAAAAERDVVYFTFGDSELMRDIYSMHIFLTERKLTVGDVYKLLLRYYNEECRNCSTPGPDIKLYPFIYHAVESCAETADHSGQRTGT

IC50	SMILES
≤ 100 nM	C[C@@H]1CN=C2N(Cc3cnn(C)c3)C(=O)c3cc(S(=O)(=O)NC4(C)CC4)cc(Cl)c3N21 [Example 124, (R)-9-chloro-1-methyl-4-((1-methyl-1H-pyrazol-4-yl)methyl)-N-(1-methylcyclopropyl)-5-oxo-1,2,4,5-tetrahydroimidazo[1,2-a]quinazoline-7-sulfonamide]
≤ 100 nM	Cc1nnc(CN2C(=O)c3cc(S(=O)(=O)NC4(C)CC4)ccc3N3C2=NC[C@H]3C)s1 [Example 56, (R)-1-methyl-4-((5-methyl-1,3,4-thiadiazol-2-yl)methyl)-N-(1-methylcyclopropyl)-5-oxo-1,2,4,5-tetrahydroimidazo[1,2-a]quinazoline-7-sulfonamide]
≤ 100 nM	C[C@@H]1CN=C2N(Cc3cnn(C)c3)C(=O)c3cc(S(=O)(=O)NC4(C)CC4)cc(Br)c3N21 [Example 129, (R)-9-bromo-1-methyl-4-((1-methyl-1H-pyrazol-4-yl)methyl)-N-(1-methylcyclopropyl)-5-oxo-1,2,4,5-tetrahydroimidazo[1,2-a]quinazoline-7-sulfonamide]
≤ 100 nM	Cn1cc(CN2C(=O)c3cc(S(=O)(=O)NC4(C)CC4)ccc3N3CC4(CCC4)N=C23)cn1 [Example 101, 4′-((1-methyl-1H-pyrazol-4-yl)methyl)-N-(1-methylcyclopropyl)-5′-oxo-4′,5′-dihydro-1′H-spiro[cyclobutane-1,2′-imidazo[1,2-a]quinazoline]-7′-sulfonamide]
≤ 100 nM	CC[C@@H]1CN=C2N(Cc3cc(C)no3)C(=O)c3cc(S(=O)(=O)NC4(C)CC4)ccc3N21 [Example 24, (R)-1-ethyl-N-(1-methylcyclopropyl)-4-((3-methylisoxazol-5-yl)methyl)-5-oxo-1,2,4,5-tetrahydroimidazo[1,2-a]quinazoline-7-sulfonamide]
≤ 100 nM	Cn1cc(CN2C(=O)c3cc(S(=O)(=O)NC4(C)CC4)ccc3N3C2=N[C@H]2COC[C@H]23)cn1 [Example 93, (7aR,10aS)-6-((1-methyl-1H-pyrazol-4-yl)methyl)-N-(1-methylcyclopropyl)-5-oxo-5,6,7a,8,10,10a-hexahydrofuro[3′,4′:4,5]imidazo[1,2-a]quinazoline-3-sulfonamide]
≤ 100 nM	C[C@@H]1CN=C2N(Cc3cnn(C)c3)C(=O)c3cc(S(=O)(=O)NC4(C)CC4)cc(N4CCN(C(=O)N(C)C)CC4)c3N21 [Example 130, (R)—N,N-dimethyl-4-(1-methyl-4-((1-methyl-1H-pyrazol-4-yl)methyl)-7-(N-(1-methylcyclopropyl)sulfamoyl)-5-oxo-1,2,4,5-tetrahydroimidazo[1,2-a]quinazolin-9-yl)piperazine-1-carboxamide]
> 10000 nM	Cc1cc(CN2C(=O)c3cc(S(=O)(=O)NC4(C)CC4)ccc3N3C2=NC[C@@H]3C(C)C)on1 [Example 11, (S)-1-isopropyl-N-(1-methylcyclopropyl)-4-((3-methylisoxazol-5-yl)methyl)-5-oxo-1,2,4,5-tetrahydroimidazo[1,2-a]quinazoline-7-sulfonamide]
> 10000 nM	CCN1C(=O)c2cc(S(=O)(=O)NC3(C)CC3)ccc2N2C1=NC[C@@H]2C1CC1 [Example 25, (S)-1-cyclopropyl-4-ethyl-N-(1-methylcyclopropyl)-5-oxo-1,2,4,5-tetrahydroimidazo[1,2-a]quinazoline-7-sulfonamide]
≤ 100 nM	[2H]C([2H])(c1cnn(C)c1)N1C(=O)c2cc(S(=O)(=O)NC3(C)CC3)cc(Cl)c2N2C1=NC[C@H]2C [Example 128, (R)-9-chloro-4-(dideutero(1-methyl-1H-pyrazol-4-yl)methyl)-1-methyl-N-(1-methylcyclopropyl)-5-oxo-1,2,4,5-tetrahydroimidazo[1,2-a]quinazoline-7-sulfonamide]
≤ 100 nM	Cc1ncc(CN2C(=O)c3cc(S(=O)(=O)NC4(C)CC4)ccc3N3C2=NC[C@H]3C)s1 [Example 31, (R)-1-methyl-N-(1-methylcyclopropyl)-4-((2-methylthiazol-5-yl)methyl)-5-oxo-1,2,4,5-tetrahydroimidazo[1,2-a]quinazoline-7-sulfonamide]
≤ 100 nM	C#C[C@@H]1CN=C2N(Cc3cnn(C)c3)C(=O)c3cc(S(=O)(=O)NC4(C)CC4)ccc3N21 [Example 34, (R)-1-ethynyl-4-((1-methyl-1H-pyrazol-4-yl)methyl)-N-(1-methylcyclopropyl)-5-oxo-1,2,4,5-tetrahydroimidazo[1,2-a]quinazoline-7-sulfonamide]
100 to 1000 nM	[2H]C([2H])(c1cnn(C)c1)N1C(=O)c2cc(S(=O)(=O)NC3(C)CC3)cc(OC)c2N2C1=NC[C@H]2C [Example 92, (R)-4-(dideutero(1-methyl-1H-pyrazol-4-yl)methyl)-9-methoxy-1-methyl-N-(1-methylcyclopropyl)-5-oxo-1,2,4,5-tetrahydroimidazo[1,2-a]quinazoline-7-sulfonamide]
≤ 100 nM	C[C@H]1N2C(=NC1(C)C)N(Cc1cnn(C)c1)C(=O)c1cc(S(=O)(=O)NC3(C)CC3)ccc12 [Example 111, (R)-1,2,2-trimethyl-4-((1-methyl-1H-pyrazol-4-yl)methyl)-N-(1-methylcyclopropyl)-5-oxo-1,2,4,5-tetrahydroimidazo[1,2-a]quinazoline-7-sulfonamide]
≤ 100 nM	C#C[C@@H]1CN=C2N(Cc3cnc(C)s3)C(=O)c3cc(S(=O)(=O)NC4(C)CC4)ccc3N21 [Example 16, (R)-1-ethynyl-N-(1-methylcyclopropyl)-4-((2-methylthiazol-5-yl)methyl)-5-oxo-1,2,4,5-tetrahydroimidazo[1,2-a]quinazoline-7-sulfonamide]
≤ 100 nM	C#C[C@@H]1CN=C2N(Cc3cc(C)no3)C(=O)c3cc(S(=O)(=O)NC4(C)CC4)ccc3N21 [Example 10, (R)-1-ethynyl-N-(1-methylcyclopropyl)-4-((3-methylisoxazol-5-yl)methyl)-5-oxo-1,2,4,5-tetrahydroimidazo[1,2-a]quinazoline-7-sulfonamide]
≤ 100 nM	Cn1cc(CN2C(=O)c3cc(S(=O)(=O)NC4(C)CC4)ccc3N3C2=NC[C@H]3C2CC2)cn1 [Example 35, (R)-1-cyclopropyl-4-((1-methyl-1H-pyrazol-4-yl)methyl)-N-(1-methylcyclopropyl)-5-oxo-1,2,4,5-tetrahydroimidazo[1,2-a]quinazoline-7-sulfonamide]
≤ 100 nM	C[C@@H]1CN=C2N(Cc3cnn(C)c3)C(=O)c3cc(S(=O)(=O)NC4(C)CC4)ccc3N21 [Example 46, (R)-1-methyl-4-((1-methyl-1H-pyrazol-4-yl)methyl)-N-(1-methylcyclopropyl)-5-oxo-1,2,4,5-tetrahydroimidazo[1,2-a]quinazoline-7-sulfonamide]
≤ 100 nM	[2H]C([2H])(c1cnn2c1CCC2)N1C(=O)c2cc(S(=O)(=O)NC3(C)CC3)ccc2N2C1=NC[C@H]2C [Example 122, (R)-4-(dideutero(5,6-dihydro-4H-pyrrolo[1,2-b]pyrazol-3-yl)methyl)-1-methyl-N-(1-methylcyclopropyl)-5-oxo-1,2,4,5-tetrahydroimidazo[1,2-a]quinazoline-7-sulfonamide]
≤ 100 nM	Cc1nc(C)c(CN2C(=O)c3cc(S(=O)(=O)NC4CC4)ccc3N3C2=NC[C@H]3C)s1 [Example 94, (R)-N-cyclopropyl-4-((2,4-dimethylthiazol-5-yl)methyl)-1-methyl-5-oxo-1,2,4,5-tetrahydroimidazo[1,2-a]quinazoline-7-sulfonamide]
≤ 100 nM	C#C[C@@H]1CN=C2N(Cc3c(C)noc3C)C(=O)c3cc(S(=O)(=O)NC4(C)CC4)ccc3N21 [Example 71, (R)-4-((3,5-dimethylisoxazol-4-yl)methyl)-1-ethynyl-N-(1-methylcyclopropyl)-5-oxo-1,2,4,5-tetrahydroimidazo[1,2-a]quinazoline-7-sulfonamide]
≤ 100 nM	[2H]C([2H])(c1cnn(C)c1)N1C(=O)c2cc(S(=O)(=O)NC3(C)CC3)cc(C)c2N2C1=NC[C@H]2C [Example 132, (R)-1,9-dimethyl-4-((1-methyl-1H-pyrazol-4-yl)methyl-d2)-N-(1-methylcyclopropyl)-5-oxo-1,2,4,5-tetrahydroimidazo[1,2-a]quinazoline-7-sulfonamide]
≤ 100 nM	Cc1cc(CN2C(=O)c3cc(S(=O)(=O)NC4(C)CC4)ccc3N3C2=NC[C@H]3C2CC2)on1 [Example 22, (R)-1-cyclopropyl-N-(1-methylcyclopropyl)-4-((3-methylisoxazol-5-yl)methyl)-5-oxo-1,2,4,5-tetrahydroimidazo[1,2-a]quinazoline-7-sulfonamide]
≤ 100 nM	C[C@@H]1CN=C2N(Cc3cnn(C)c3)C(=O)c3cc(S(=O)(=O)NC4(C)CC4)cc(C4=CCOCC4)c3N21 [Example 133, (R)-9-(3,6-dihydro-2H-pyran-4-yl)-1-methyl-4-((1-methyl-1H-pyrazol-4-yl)methyl)-N-(1-methylcyclopropyl)-5-oxo-1,2,4,5-tetrahydroimidazo[1,2-a]quinazoline-7-sulfonamide]
≤ 100 nM	C[C@H]1CN2C(=N1)N(Cc1cnn(C)c1)C(=O)c1cc(S(=O)(=O)NC3(C)CC3)ccc12 [Example 106, (S)-2-methyl-4-((1-methyl-1H-pyrazol-4-yl)methyl)-N-(1-methylcyclopropyl)-5-oxo-1,2,4,5-tetrahydroimidazo[1,2-a]quinazoline-7-sulfonamide]
1000 to 10000 nM	CC(C)C1CN=C2N(C)C(=O)c3cc(S(=O)(=O)NC4(C)CC4)ccc3N21 (stereo not drawn) [Example 49, 1-isopropyl-4-methyl-N-(1-methylcyclopropyl)-5-oxo-1,2,4,5-tetrahydroimidazo[1,2-a]quinazoline-7-sulfonamide]
100 to 1000 nM	C[C@@H]1CN=C2N(Cc3cnn(C)c3)C(=O)c3cc(S(=O)(=O)NC4(C#N)CC4)ccc3N21 [Example 2, (R)—N-(1-cyanocyclopropyl)-1-methyl-4-((1-methyl-1H-pyrazol-4-yl)methyl)-5-oxo-1,2,4,5-tetrahydroimidazo[1,2-a]quinazoline-7-sulfonamide]
